What was measured:
[1] = test system: Interleukin 1 (IL-1) production by peritoneal macrophages; test: IL-1 Assay: production of interleukin-1 by peritoneal macrophages (thymocyte bioassay); assay type: cell-based, mouse (C57B1/6); parameters: inhibition: dose or concentration left out as unconfirmed; conditions: for inhibition at 0.001 µg/mL / inhibition at 0.01 µg/mL / inhibition at 0.1 µg/mL / inhibition at 2.5 µg/mL / inhibition at 10 µg/mL / inhibition at 25 µg/mL / inhibition at 100 µg/mL / inhibition: Mus musculus, Peritoneal macrophage, read-out: % effect on IL-1 production (thymidine uptake by thymocytes)
Source text: Interleukin 1 (IL-1) is a potent immunomodulatory cytokine that has a broad range of pro-inflammatory activities. IL-1 is known to be produced by activated accessory cells such as macrophages. Accessory cell production of IL-1 results in the activation and proliferation of T and B lymphocytes. Therefore, by inhibiting macrophage activation and production of IL-1, the activation and proliferation of the cellular effectors of inflammation can be modulated. Compounds of the invention were screened for inhibitory activity in a classical IL-1 assay. Six to 8 week old male C57B1/6 mice were purchased from Harlan Sprague Dawley. Peritoneal macrophages were elicited by the administration to mice of a single intraperitoneal injection of 0.2 ml of complete Freund's adjuvant. After 48 hours, elicited macrophages were removed from the mice by lavage with the use of Hank's balanced salt solution. […] To the macrophage cultures were added various doses of the compounds of the invention and 10 ug/ml of the macrophage activator lipopolysaccharide (to stimulate IL-1 production). Control cultures consisted of macrophages, lipopolysaccharide and culture medium containing various doses of DMSO only. […] The amount of IL-1 produced in the individual wells was determined in a bioassay for IL-1. This involved the removal of thymuses from mice less than 8 weeks of age. Thymocytes were isolated by passing each thymus through a stainless steel mesh screen. […] After 18 hours cells were harvested and radioactive incorporation (as a measure of cell proliferation) was quantitated in a liquid scintillation counter. The students t test was used to determine the significance of the difference between experimental and control values.

[2] = test system: T cell proliferation in mouse spleen cell mixed lymphocyte cultures; test: Mixed Lymphocyte Reaction (MLR) assay; assay type: cell-based, mouse (Balb/c responder, C57B1/6 stimulator)
Source text: The pharmacologic assays performed to determine the immunomodulatory effects of the experimental compounds in vitro include the Mixed Lymphocyte Reaction (MLR) and the ConA blastogenesis assay. These assays were used to determine the inhibitory effects of the compounds of the invention on T lymphocyte activation and proliferation. Since inflammation at the cellular level is characterized by T lymphocyte recruitment, activation and proliferation, these assays are appropriate to use as screens for novel compounds having therapeutic potential in the treatment of disorders in which inflammatory mechanisms are involved.
The MLR is a classical assay used to measure T cell function by studying the proliferative response of T cells which are activated in vitro by genetically disparate stimulator cells. This is accomplished by co-culturing spleen cells from two different strains of mice. Splenic T cell proliferation occurs as a result of cellular activation signals generated by the ongoing cellular interactions.
Balb/c mice were euthanised by cervical dislocation and their spleens removed. Single cell suspensions of the spleens were prepared in culture medium (hepes buffered RPMI-1640 supplemented with 10% fetal calf serum, 2mM glutamine, 500 units penicillin/ streptomycin, and 4×10^-5 M 2-mercaptoethanol) using a Teflon pestle. The cells were centrifuged at 1500 rpm and the pellets resuspended in ACT (0.15M tris, 0.14M ammonium chloride, pH 7.2) in order to lyse the red blood cells. After a 5 minute incubation in a 37 C. waterbath, the cells were resuspended in culture medium and counted. C57B1/6 spleen cells which were used as stimulator cells, were also prepared by this method. The stimulator cells were treated with 100 ug/ml of mitomycin c for 1 hour at 37 C. (to inhibit stimulatory cell proliferation) and were then washed 5 times in culture medium. The proliferative responses were measured by culturing 2.5×10^5 responder cells with 5×10^5 stimulatory cells in 96 well microtiter plates in the presence or absence of various doses of test compounds or vehicle (DMSO). Syngeneic control cultures using mitomycin c treated Balb/c spleen cells as stimulator cells were also run. All cultures were run in triplicate.
Solutions of compounds of the present invention in DMSO were prepared at a stock concentration of 120 Mm. Dilutions were made in culture medium to the following concentrations: 3, 10, 30, 100, and 300 uM. The vehicle (DMSO) was used as a negative control.
After incubation of for 5 days at 37 C. with 5% CO2, the amount of cell proliferation was measured by adding 20 ul of MTT (3-[4,5-dimethylthiazol-2-yl]-2,5diphenyl-tetrazolium bromide) (10 mg/ml in phosphate buffered saline) to each well. Plates were incubated for 4 hours at 37 C., after which 180 ul of 10% sodium dodecyl sulphate in phosphate buffered saline was added. After an overnight incubation, the optical density (OD) of each well was read on a Molecular Devices microplate reader at 570-650 nm. The results were determined by calculating the difference between the means of the allogeneic cultures and the means of the syngenic cultures for each test article concentration. Differences of the test article groups were compared to the control group and the percent change from the control was determined.

| SMILES | ^3 H-Thymidine uptake by thymocytes ([1]; 0.001 ug/ml) | ^3 H-Thymidine uptake by thymocytes ([1]; 0.01 ug/ml) | ^3 H-Thymidine uptake by thymocytes ([1]; 0.1 ug/ml) | ^3 H-Thymidine uptake by thymocytes ([1]; 1 ug/ml) | ^3 H-Thymidine uptake by thymocytes ([1]; 2.5 ug/ml) | ^3 H-Thymidine uptake by thymocytes ([1]; 10 ug/ml) | ^3 H-Thymidine uptake by thymocytes ([1]; 25 ug/ml) | ^3 H-Thymidine uptake by thymocytes ([1]; 100 ug/ml) | inhibition at 0.001 µg/mL ([1]; 0.001 ug/ml) | inhibition at 0.01 µg/mL ([1]; 0.01 ug/ml) | inhibition at 0.1 µg/mL ([1]; 0.1 ug/ml) | inhibition at 2.5 µg/mL ([1]; 2.5 ug/ml) | inhibition at 10 µg/mL ([1]; 10 ug/ml) | inhibition at 25 µg/mL ([1]; 25 ug/ml) | inhibition at 100 µg/mL ([1]; 100 ug/ml) | inhibition [1] | also measured |
| --- | --- | --- | --- | --- | --- | --- | --- | --- | --- | --- | --- | --- | --- | --- | --- | --- | --- |
| CN1CCCC1CCNC[C@H]1OC(C)(C)O[C@@H]2[C@H]3OC(C)(C)O[C@H]3O[C@@H]21 (stereo partly shown) [IIIi] | 11,367 ± 906 cpm | 9,902 ± 888 cpm | 10,740 ± 724 cpm | 9,561 ± 113 cpm | 5,382 ± 45 cpm | 5,169 ± 870 cpm | 5,052 ± 140 cpm | 2,328 ± 278 cpm | -39% | -20% | -39% | 35% | 33% | 34% | 65% | -22% | effect on MLR in words [2]: strong non dose dependent inhibition of T lymphocyte proliferation; Mean O.D. Allogenic ([2]; 3 um): 0.128 O.D.; Mean O.D. Syngeneic ([2]; 3 um): 0.090 O.D.; Mean O.D. Allogenic ([2]; 10 um): 0.180 O.D.; Mean O.D. Syngeneic ([2]; 10 um): 0.102 O.D.; Mean O.D. Allogenic ([2]; 30 um): 0.165 O.D.; Mean O.D. Syngeneic ([2]; 30 um): 0.078 O.D.; Mean O.D. Allogenic ([2]; 100 um): 0.095 O.D.; Mean O.D. Syngeneic ([2]; 100 um): 0.066 O.D.; Mean O.D. Allogenic ([2]; 300 um): 0.019 O.D.; Mean O.D. Syngeneic ([2]; 300 um): 0.030 O.D.; inhibition at 3 µM ([2]; Mus musculus, Lymphocyte, 3 um, read-out: % Change From Control, MLR): 15%; inhibition at 10 µM ([2]; Mus musculus, Lymphocyte, 10 um, read-out: % Change From Control, MLR): 48%; inhibition at 30 µM ([2]; Mus musculus, Lymphocyte, 30 um, read-out: % Change From Control, MLR): 42%; inhibition at 100 µM ([2]; Mus musculus, Lymphocyte, 100 um, read-out: % Change From Control, MLR): 81%; inhibition at 300 µM ([2]; Mus musculus, Lymphocyte, 300 um, read-out: % Change From Control, MLR): 107% |
| CCCCCCCOCCCO[C@@H]1[C@H]2OC(C)(C)O[C@H]2O[C@@H]1[C@H](O)CO [IIg] | 8,823 ± 771 cpm | 7,873 ± 379 cpm | 8,790 ± 533 cpm | 7,307 ± 680 cpm | 7,229 ± 471 cpm | 4,854 ± 471 cpm | 3,265 ± 141 cpm | 934 ± 43 cpm | -8% | 4% | -14% | 13% | 37% | 57% | 80% | 6% | % Change From Control, MLR ([2]; Table X, 3 ugm): -61%; % Change From Control, MLR ([2]; Table X, 10 ugm): -15%; Mean O.D. Allogenic ([2]; Table X, 10 ugm): 0.197 O.D.; Mean O.D. Syngeneic ([2]; Table X, 10 ugm): 0.070 O.D.; % Change From Control, MLR ([2]; Table X, 30 ugm): -36%; Mean O.D. Allogenic ([2]; Table X, 30 ugm): 0.171 O.D.; Mean O.D. Syngeneic ([2]; Table X, 30 ugm): 0.075 O.D.; % Change From Control, MLR ([2]; Table X, 100 ugm): -101%; % Change From Control, MLR ([2]; Table X, 300 ugm): -97%; strong non-dose dependent inhibition in MLR ([2]; several concentrations): greater than -50 % of control |
